According to US9145351B2, “Azole derivatives, methods for producing the same, intermediate thereof, agro-horticultural agents” (KUREHA CORPORATION, priority 2009, dated 2015):

Assays:
Format in all cases: cell-based
[1] = test system: Ustilago nuda; assay: Plate medium fungicidal assay, barley loose smut U.n (Experimental Example 5)
In short: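 Compounds in DMSO were mixed into molten PDA to give plates at 50 mg/L and 5 mg/L, then inoculated with a 4 mm mycelial plug. Colony diameter was compared with untreated plates as % inhibition = 100(dc−dt)/dc, scored on a 5-grade scale.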

[2] = test system: Pyricularia oryzae; assay: microbe, parasite or virus in culture
[3] = test system: Giberella fujikuroi; assay: Plate medium fungicidal assay, rice bakanae disease G.f (Experimental Example 5)
In short: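 Gibberella fujikuroi mycelial plugs (4 mm) placed on PDA plates containing compound at 50 mg/L and 5 mg/L, added from DMSO solution. Colony diameter compared with untreated plates as % inhibition = 100(dc−dt)/dc, then scored in 5 grades.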

[4] = test system: Sclerotinia sclerotiorum; assay: Plate medium fungicidal assay, Sclerotinia rot S.s (Experimental Example 5)
In short: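 A 4 mm mycelial plug was placed on PDA plates containing compound at 50 mg/L and 5 mg/L, added from DMSO solution. Colony diameters were compared with untreated plates, % mycelial growth inhibition was R=100(dc−dt)/dc, and scores fell into 5 grades.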

[5] = test system: Botritis cinerea; assay: Plate medium fungicidal assay, gray mold B.c (Experimental Example 5)
In short: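 Compounds in DMSO were incorporated into PDA plate medium at 50 mg/L and 5 mg/L, then inoculated with 4 mm mycelial plugs of Botrytis cinerea. Colony diameter versus untreated plates gave % mycelial growth inhibition, R=100(dc−dt)/dc, scored on a 5-grade scale.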

[6] = test system: Rhynchosporium secalis; assay: Plate medium fungicidal assay, barley leaf blotch R.sec (Experimental Example 5)
In short: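 Compound in DMSO mixed into PDA plate medium at 50 mg/L and 5 mg/L; 4 mm mycelial plug of the fungus inoculated. Colony diameter compared with untreated plates gives % mycelial growth inhibition R=100(dc−dt)/dc, scored on a 5-grade scale.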

[7] = plate medium containing compound at 5 mg/L
[8] = plate medium containing compound at 50 mg/L

## C[C@]1(CCl)CC[C@@H](Cc2ccc(OC(F)(F)F)cc2)[C@]1(O)Cn1cncn1 (relative stereo) [Compound I-79]
[1]; [7]
  Growth inhibition grade, U.n: 5 (% Mycerial growth inhibition of 80% or higher)
[1]; [8]
  Growth inhibition grade, U.n: 5 (% Mycerial growth inhibition of 80% or higher)
[2]; [7]
  Growth inhibition grade, P.o: 5 (% Mycerial growth inhibition of 80% or higher)
[2]; [8]
  Growth inhibition grade, P.o: 5 (% Mycerial growth inhibition of 80% or higher)
[3]; [7]
  Growth inhibition grade, G.f: 5 (% Mycerial growth inhibition of 80% or higher)
[3]; [8]
  Growth inhibition grade, G.f: 5 (% Mycerial growth inhibition of 80% or higher)
[4]; [7]
  Growth inhibition grade, S.s: 5 (% Mycerial growth inhibition of 80% or higher)
[4]; [8]
  Growth inhibition grade, S.s: 5 (% Mycerial growth inhibition of 80% or higher)
[5]; [7]
  Growth inhibition grade, B.c: 5 (% Mycerial growth inhibition of 80% or higher)
[5]; [8]
  Growth inhibition grade, B.c: 5 (% Mycerial growth inhibition of 80% or higher)
[6]; [7]
  Growth inhibition grade, R.sec: 5 (% Mycerial growth inhibition of 80% or higher)
[6]; [8]
  Growth inhibition grade, R.sec: 5 (% Mycerial growth inhibition of 80% or higher)
